Results from the CheMixHub viscosity set.
Values joined by “and” are separate entries in the source; they are usually repeats but may differ in a detail not shown here. Equal entries are not always repeated.

Experiment: xn = mol fraction of the nth substance listed

c1ccc(Nc2ccccc2)cc1 + CCCCCC
viscosity
Settings	298.15 K	303.15 K	308.15 K	313.15 K	318.15 K
101 kPa, x1 = 0.0477	0.3866 mPa·s	0.3675 mPa·s	0.3515 mPa·s	0.3325 mPa·s	0.3164 mPa·s
101 kPa, x1 = 0.1451	–	0.5085 mPa·s	0.4768 mPa·s	0.4472 mPa·s	0.4182 mPa·s
101.33 kPa, x1 = 0.03537	–	0.352 mPa·s	–	–	0.3079 mPa·s
101.33 kPa, x1 = 0.04767	–	0.3675 mPa·s	–	–	0.3164 mPa·s
101.33 kPa, x1 = 0.0477	0.3866 mPa·s	0.3675 mPa·s	0.3515 mPa·s	0.3325 mPa·s	0.3164 mPa·s
101.33 kPa, x1 = 0.05985	–	0.3824 mPa·s	–	–	0.3288 mPa·s
101.33 kPa, x1 = 0.1451	–	0.5085 mPa·s and 0.5085 mPa·s	0.4768 mPa·s	0.4472 mPa·s	0.4182 mPa·s and 0.4182 mPa·s
101.33 kPa, x1 = 0.3067	–	1.53 mPa·s	–	–	0.7796 mPa·s

O.O.O.O.O.O=S(=O)([O-])[S-].[Na+].[Na+] + N#C[S-].[Na+]
101.33 kPa, x2 = 0.3
Settings	viscosity [mPa·s]
308 K	30.26
313 K	23.84
318 K	19.42
323 K	15.54

CC(C)CCCC(C)CCCC(C)CCCC(C)C (centres undefined) + Cc1ccccc1
viscosity [mPa·s], 100 kPa
Settings	298.15 K	313.15 K
x2 = 0.4932	2.255	1.658
x2 = 0.7449	1.263	0.974

C[N+](C)(C)CCO.[Cl-] + CN(CCO)CCO
viscosity [mPa·s], 101 kPa
Settings	x1 = 0.091	x1 = 0.111	x1 = 0.143
293.15 K	54.54	126.3	139.8
313.15 K	20.45	40.89	46.55

CCCC[P+](CCCC)(CCCC)CCCC.[Cl-] + O
Settings	viscosity [mPa·s]
298.15 K, 100 kPa, x1 = 0.008058	1.485

O=P([O-])([O-])[O-].[Na+].[Na+].[Na+] + O
viscosity [mPa·s], 101 kPa
Settings	x1 = 0.0018	x1 = 0.0054	x1 = 0.0089	x1 = 0.012	x1 = 0.016
298.15 K	0.9742	1.167	1.458	1.859	2.317
303.15 K	0.8777	1.054	1.31	1.67	2.131
308.15 K	0.7769	0.9282	1.146	1.444	1.868

CC(O)C(C)O (centres undefined) + O=C1CCCN1
Settings	viscosity [mPa·s]
308.15 K, 101 kPa, x2 = 0.5898	14.65

CCCCCCCCN + C1CCCCC1
303.15 K, 101 kPa
Settings	viscosity [mPa·s]
x2 = 0.0971	1.138
x2 = 0.1959	1.096
x2 = 0.2997	1.036
x2 = 0.401	0.97
x2 = 0.497	0.952
x2 = 0.5993	0.913
x2 = 0.6975	0.863
x2 = 0.7993	0.82
x2 = 0.896	0.81

O=C(O)c1ccccc1C(=O)O + CCCO
viscosity [mPa·s]
Settings	308.15 K	313.15 K	318.15 K	323.15 K
101 kPa, x1 = 0.02	–	1.632	–	–
101 kPa, x1 = 0.027	–	1.732	–	–
101 kPa, x1 = 0.0369	–	1.887	–	–
101.33 kPa, x1 = 0.02	1.78	1.632	1.457	1.302
101.33 kPa, x1 = 0.0369	2.133	1.887	1.672	1.488

O=C(O)CCC(=O)O + CCCCO
101 kPa
Settings	viscosity [mPa·s]
308.15 K, x1 = 0.0162	2.167
313.15 K, x1 = 0.0162	1.91
318.15 K, x1 = 0.0162	1.704
318.15 K, x1 = 0.017	1.704
318.15 K, x1 = 0.035	1.848
318.15 K, x1 = 0.0435	1.943
318.15 K, x1 = 0.047	1.943
323.15 K, x1 = 0.0162	1.51
323.15 K, x1 = 0.0435	1.726

CC(F)F + FC(F)C(F)(F)F
viscosity [mPa·s], 101 kPa
Settings	x2 = 0.248	x2 = 0.504	x2 = 0.758
298.15 K	0.1447	0.1487	0.1533
313.15 K	0.1172	0.1234	0.13

Fc1ccccc1 + O=CN1CCOCC1
viscosity [mPa·s], 101 kPa
Settings	x2 = 0.0946	x2 = 0.1904	x2 = 0.2873	x2 = 0.3854	x2 = 0.4847	x2 = 0.5853	x2 = 0.687	x2 = 0.79	x2 = 0.8944
303.15 K	0.72	0.957	1.245	1.595	2.028	2.579	3.265	4.113	5.175
308.15 K	0.677	0.895	1.157	1.466	1.846	2.325	2.919	3.64	4.539
313.15 K	0.641	0.845	1.079	1.361	1.711	2.139	2.669	3.314	4.111

CC(O)C(C)O (centres undefined) + O
viscosity [mPa·s]
Settings	303.15 K	308.15 K	313.15 K	318.15 K	323.15 K
101 kPa, x1 = 0.01	0.943	0.842	0.759	0.69	0.632
101 kPa, x1 = 0.0199	1.108	0.982	0.877	0.792	0.719
101 kPa, x1 = 0.03	1.294	1.138	1.01	0.905	0.816
101 kPa, x1 = 0.0399	1.506	1.312	1.155	–	0.919
101 kPa, x1 = 0.0499	1.733	1.498	1.308	1.155	1.028
101 kPa, x1 = 0.0601	1.985	1.7	1.471	1.292	1.145
101 kPa, x1 = 0.0699	2.242	1.91	1.649	1.436	1.264
101 kPa, x1 = 0.08	2.53	2.135	1.826	1.586	1.39
101 kPa, x1 = 0.0899	2.79	2.345	1.998	1.724	1.503
101 kPa, x1 = 0.1	3.084	2.571	2.182	1.868	1.622
101.3 kPa, x1 = 0.1176	–	3.174	2.627	2.203	–
101.3 kPa, x1 = 0.2307	–	6.873	5.405	4.363	–
101.3 kPa, x1 = 0.3181	–	10.06	7.822	6.198	–
101.3 kPa, x1 = 0.4443	–	15.66	11.92	9.192	–
101.3 kPa, x1 = 0.5311	–	20.41	15.17	11.64	–
101.3 kPa, x1 = 0.6427	–	27.5	20.24	15.02	–
101.3 kPa, x1 = 0.8275	–	41.68	29.62	21.32	–
101.3 kPa, x2 = 0.3539	–	12.95	–	–	–

c1ccc(Nc2ccccc2)cc1 + CCCCCC(=O)O
323.15 K, 101.33 kPa
Settings	viscosity [mPa·s]
x1 = 0.2111	2.271
x1 = 0.3983	2.789
x1 = 0.5972	3.497
x1 = 0.7957	4.496

[Cl-].[Cl-].[Cl-].[Cl-].[Ge+4] + CCOC(C)=O
viscosity [mPa·s], 101 kPa
Settings	x2 = 0.1475	x2 = 0.3162	x2 = 0.5235	x2 = 0.6703	x2 = 0.8062
293.15 K	0.576	0.535	0.5	0.481	0.469
303.15 K	0.531	0.486	0.457	0.431	0.416
313.15 K	0.481	0.449	0.406	0.39	0.382
